The source of these data is patent US20050107289A1, “Anti-microbial peptides and compositions” (priority 2001, published 2005).

In one data set the test system is murine red blood cells. Kind of data set: Red blood cell hemolysis. It is filed as cell-based, mouse. As for the experimental part: Selectivity of cyclic peptides for bacterial over mammalian cells was evaluated by measuring red blood cell hemolytic activities as described in Tosteson, M. T. Holmes, S. J., Razin, M. and Tosteson, D. C. Melittin Lysis of Red Cells, J. Membrane Biol. 87, 35-44(1985). Heparinized murine blood was centrifuged at 1000×g for 10 minutes. The supernatant and the buffy coat were removed. Erythrocytes were washed three times with 0.9% saline solution and then resuspended to a concentration of 5% in saline containing 10% FBS (v/v). Red blood cells were then treated with serial dilutions of test peptides in a 96 well plate at 37° C. for 30 minutes. Control samples included a saline solution arid 1% Triton X-100 as 0 and 100% hemolysis, respectively. In some cases, mellitin was used as a further control. Mellitin is a linear peptide that is hemolytic against mammalian red blood cells in vitro at a concentration of about 10 μg/ml. Plates were centrifuged at 1000 g for 10 minutes. Aliquots of the supernatant were diluted 2 times with saline solution and the absorbance was measured at 560 nm.

Data set [1] concerns S. aureus (MRSA) ATCC 33591. It is filed as cell-based, Staphylococcus aureus. The settings on record: Table 9, media b: cation adjusted Meuller Hinton broth (MHBII). As for the experimental part:
(§1) The antimicrobial activity of the peptides was determined using a broth dilution assay essentially as descried in the guidelines of the National Committee for […] (NCCLS) [National Committee for Clinical Laboratory Standards. Methods for dilution antimicrobial susceptibility tests for bacteria that grow aerobically. Fourth edition. Approved Standard (1997). Document M7-A4. […] The microdilution method has the advantages of requiring less amount of peptide for each assay and the possibility of multiple simultaneous inoculations and was used in most studies. Several of the strains of bacteria tested are further described in Table 3.
(§2) Preparation of peptide solutions. Stock peptide solutions were prepared in 5% DMSO in aq. sucrose (9%). Determination of peptide concentrations was done by quantitative HPLC analysis using known concentrations of internal standards and/or by measuring UV absorption of tryptophane-containing peptide solutions in H2O (λ=280 εTrp: 5690). Serial 2-fold dilutions were made in the above DMSO/aq. sucrose (9%) mixture with concentrations ranging approximately 400-2 μg/ml and aliquots were dispensed in test tubes (100 μl) for the macrodilution test or in microtiter plates (20 μl) for the microdilution assays.
(§3) Inoculum preparation. Overnight cultures of different microorganisms grown in suitable media were diluted 4000 times to an approximate inoculum size of 2.5×10^5 cfu/ml.
(§4) Macrodilution method. Macrodilution methods were performed using procedures similar to those described in the National Committee for Clinical Laboratory Standards. Methods for dilution antimicrobial susceptibility tests for bacteria that grow aerobically. Fourth edition. Approved Standard (1997). Document M7-A4. (NCCLS,Villanova, Pa., 1997). Two ml aliquots of the above inoculum were dispensed to test tubes containing different peptide solutions.
(§5) Microdilution method. Microdilution methods were performed using procedures similar to those described in the National Committee for Clinical Laboratory Standards. Methods for dilution antimicrobial susceptibility tests for bacteria that grow aerobically. Fourth edition. Approved Standard (1997). Document M7-A4.

For data set [2], the system named is vancomycin-resistant Enterococus faecalis (VRE)(ATCC 51575). The data set is classed as cell-based, Enterococcus faecalis. Further details: key to VRE (in vitro activity): peptide concentration in μg/ml (broth dilution assay). The note with it: Table 9; media c: Brain Heart Infusion (BHI). On the procedure: as §1, §2, §3, §4, §5

Like-named read-outs stand apart in the source and are kept apart here. Non-standard residues stand in square brackets, D forms with d. Residues, ends and D or L forms follow the SMILES beside them. Nle = CCCC[C@H](N)C(=O)O

Regarding `CC(C)C[C@H]1NC(=O)[C@H](C)NC(=O)[C@@H](CC(C)C)NC(=O)[C@H](Cc2ccccc2)NC(=O)[C@@H](CC(C)C)NC(=O)[C@H](CCCCN)NC(=O)[C@@H](Cc2c[nH]cn2)NC(=O)[C@H](CCCCN)NC1=O` [SEQ ID NO:47, [KHKLFLAL]] (cyclo(K[dH]K[dL]F[dL]A[dL])), in the data set with murine red blood cells, the “RBC Hemolysis (HD50)” value is reported as over 220. The “MRSA (in vitro activity)” value in data set [1] turned out to be 3. Further, the “VRE (in vitro activity)” value in data set [2] turned out to be 13.
In the case of `CC(C)C[C@H]1NC(=O)[C@H](CCCCN)NC(=O)[C@@H](Cc2c[nH]cn2)NC(=O)[C@H](CCCCN)NC(=O)[C@@H](CC(C)C)NC(=O)[C@H](Cc2ccccc2)NC(=O)[C@@H](CC(C)C)NC(=O)[C@H](Cc2ccccc2)NC1=O` [SEQ ID NO:48, [KHKLFLFL]] (cyclo(K[dH]K[dL]F[dL]F[dL])), the “RBC Hemolysis (HD50)” value with murine red blood cells is over 220. For the same molecule, the “MRSA (in vitro activity)” value in data set [1] is recorded as 7. Also, the “VRE (in vitro activity)” value in data set [2] was 13.
As to `CC(C)C[C@H]1NC(=O)[C@H](CCCCN)NC(=O)[C@@H](Cc2c[nH]cn2)NC(=O)[C@H](CCCCN)NC(=O)[C@@H](CC(C)C)NC(=O)[C@H](Cc2c[nH]c3ccccc23)NC(=O)[C@@H](CC(C)C)NC(=O)[C@H](Cc2ccccc2)NC1=O` [SEQ ID NO:49, [KHKLFLWL]] (cyclo(K[dH]K[dL]F[dL]W[dL])), the “RBC Hemolysis (HD50)” value in the data set with murine red blood cells is given as 200. In data set [1], the “MRSA (in vitro activity)” value is listed as 12. The “VRE (in vitro activity)” value in data set [2] is recorded as 25.
For `CC(C)C[C@H]1NC(=O)[C@H](CCCCN)NC(=O)[C@@H](Cc2c[nH]cn2)NC(=O)[C@H](CCCCN)NC(=O)[C@@H](CC(C)C)NC(=O)[C@H](Cc2c[nH]c3ccccc23)NC(=O)[C@@H](CC(C)C)NC(=O)[C@H](Cc2c[nH]c3ccccc23)NC1=O` [SEQ ID NO:50, [KHKLWLWL]] (cyclo(K[dH]K[dL]W[dL]W[dL])), in that order: 150, 9 and 18.
For `CC(C)C[C@@H]1NC(=O)[C@@H](Cc2ccccc2)NC(=O)[C@H](CCCCN)NC(=O)[C@@H](CCCCN)NC(=O)[C@H](CCCCN)NC(=O)[C@@H](Cc2ccccc2)NC(=O)[C@H](CC(C)C)NC(=O)[C@@H](Cc2ccccc2)NC1=O` [SEQ ID NO:51, [KKKFLFLF]] (cyclo(K[dK]K[dF]L[dF]L[dF])), in that order: over 300, 18 and 75.
For `CC(C)C[C@H]1NC(=O)[C@H](CCCCN)NC(=O)[C@@H](CCCNC(=N)N)NC(=O)[C@H](CCCCN)NC(=O)[C@@H](CC(C)C)NC(=O)[C@H](Cc2ccccc2)NC(=O)[C@@H](CC(C)C)NC(=O)[C@H](Cc2ccccc2)NC1=O` [SEQ ID NO:52, [KRKLFLFL]] (cyclo(K[dR]K[dL]F[dL]F[dL])), in that order: over 180, 11 and 22.
As for `CC(C)C[C@H]1NC(=O)[C@H](C)NC(=O)[C@@H](CC(C)C)NC(=O)[C@H](CCCCN)NC(=O)[C@@H](CO)NC(=O)[C@H](CCCCN)NC(=O)[C@@H](CC(C)C)NC(=O)[C@H](C)NC1=O` [SEQ ID NO:53, [KSKLALAL]] (cyclo(K[dS]K[dL]A[dL]A[dL])), the “RBC Hemolysis (HD50)” value in the data set with murine red blood cells was over 280. Also, the “MRSA (in vitro activity)” value in data set [1] is reported as 35. For the same molecule, the “VRE (in vitro activity)” value in data set [2] was over 280.
As to `CC(C)C[C@H]1NC(=O)[C@H](CCCCN)NC(=O)[C@@H](CO)NC(=O)[C@H](CCCCN)NC(=O)[C@@H](CC(C)C)NC(=O)[C@H](Cc2ccccc2)NC(=O)[C@@H](CC(C)C)NC(=O)[C@H](Cc2ccccc2)NC1=O` [SEQ ID NO:54, [KSKLFLFL]] (cyclo(F[dL]F[dL]K[dS]K[dL])), the “RBC Hemolysis (HD50)” value in the data set with murine red blood cells is over 200. In addition, in data set [1] (listed as [KSKLFLFL] (54)), the “MRSA (in vitro activity)” value was 50. The “VRE (in vitro activity)” value in data set [2] amounted to 200.
For the molecule `CC(C)C[C@H]1NC(=O)CNC(=O)[C@@H](CC(C)C)NC(=O)[C@H](CCCCN)NC(=O)[C@@H](CO)NC(=O)[C@H](CCCCN)NC(=O)[C@@H](CC(C)C)NC(=O)CNC1=O` [SEQ ID NO:56, [KSKLGLGL]] (cyclo(K[dS]K[dL]G[dL]G[dL])), the “RBC Hemolysis (HD50)” value in the data set with murine red blood cells is over 240. For the same molecule, in data set [1], the “MRSA (in vitro activity)” value is over 240. Moreover, the “VRE (in vitro activity)” value in data set [2] is recorded as over 240.
For `CC[C@H](C)[C@@H]1NC(=O)[C@@H](CC(C)C)NC(=O)[C@H](CCCCN)NC(=O)[C@@H](CO)NC(=O)[C@H](CCCCN)NC(=O)[C@@H](CC(C)C)NC(=O)[C@H]([C@@H](C)CC)NC(=O)[C@@H](CC(C)C)NC1=O` [SEQ ID NO:57, [KSKLILIL]] (cyclo(I[dL]I[dL]K[dS]K[dL])), the “RBC Hemolysis (HD50)” value in the data set on murine red blood cells is listed as over 200. Besides, in data set [1] (listed as [KSKLILIL] (57)), the “MRSA (in vitro activity)” value is recorded as 200. Also, the “VRE (in vitro activity)” value in data set [2] is given as over 200.
Turning to `CCCC[C@@H]1NC(=O)[C@@H](CC(C)C)NC(=O)[C@H](CCCCN)NC(=O)[C@@H](CO)NC(=O)[C@H](CCCCN)NC(=O)[C@@H](CC(C)C)NC(=O)[C@H](CCCC)NC(=O)[C@@H](CC(C)C)NC1=O` [SEQ ID NO:59, [KSKLNleLNleL]] (cyclo(K[dS]K[dL][Nle][dL][Nle][dL])), the “RBC Hemolysis (HD50)” value in the data set with murine red blood cells is given as over 220. Besides, the “MRSA (in vitro activity)” value in data set [1] is reported as 220. The “VRE (in vitro activity)” value in data set [2] was over 200.
For `CC(C)C[C@H]1NC(=O)[C@H](CCCCN)NC(=O)[C@@H](CO)NC(=O)[C@H](CCCCN)NC(=O)[C@@H](CC(C)C)NC(=O)[C@H](C(C)C)NC(=O)[C@@H](CC(C)C)NC(=O)[C@H](C(C)C)NC1=O` [SEQ ID NO:60, [KSKLVLVL]] (cyclo(K[dS]K[dL]V[dL]V[dL])), in that order: over 220, over 220 and over 220.
For `CC(C)C[C@H]1NC(=O)[C@H](CCCCN)NC(=O)[C@@H](CO)NC(=O)[C@H](CCCCN)NC(=O)[C@@H](CC(C)C)NC(=O)[C@H](Cc2c[nH]c3ccccc23)NC(=O)[C@@H](CC(C)C)NC(=O)[C@H](Cc2c[nH]c3ccccc23)NC1=O` [SEQ ID NO:61, [KSKLWLWL]] (cyclo(K[dS]K[dL]W[dL]W[dL])), in that order: 125, 15 and 15.
Consider `CC(C)C[C@H]1NC(=O)[C@H](CCCCN)NC(=O)[C@@H](CO)NC(=O)[C@H](CCCCN)NC(=O)[C@@H](CC(C)C)NC(=O)[C@H](Cc2ccc(O)cc2)NC(=O)[C@@H](CC(C)C)NC(=O)[C@H](Cc2ccc(O)cc2)NC1=O` [SEQ ID NO:62, [KSKLYLYL]] (cyclo(K[dS]K[dL]Y[dL]Y[dL])), for which the “RBC Hemolysis (HD50)” value with murine red blood cells is over 200. In addition, in data set [1], the “MRSA (in vitro activity)” value was 100. In addition, the “VRE (in vitro activity)” value in data set [2] turned out to be 200.
Consider `CC(C)C[C@H]1NC(=O)[C@H](C)NC(=O)[C@@H](CC(C)C)NC(=O)[C@H](CCCCN)NC(=O)[C@@H]([C@H](C)O)NC(=O)[C@H](CCCCN)NC(=O)[C@@H](CC(C)C)NC(=O)[C@H](C)NC1=O` [SEQ ID NO:64, [KTKLALAL]] (cyclo(K[dT]K[dL]A[dL]A[dL])), for which the “RBC Hemolysis (HD50)” value in the data set with murine red blood cells is listed as over 160. In addition, the “MRSA (in vitro activity)” value in data set [1] worked out at 80. Further, in data set [2], the “VRE (in vitro activity)” value is listed as over 160.
With `CC(C)C[C@H]1NC(=O)[C@H](Cc2ccccc2)NC(=O)[C@@H](CC(C)C)NC(=O)[C@H](CCCCN)NC(=O)[C@@H]([C@H](C)O)NC(=O)[C@H](CCCCN)NC(=O)[C@@H](CC(C)C)NC(=O)[C@H](Cc2ccccc2)NC1=O` [SEQ ID NO:65, [KTKLFLFL]] (cyclo(K[dT]K[dL]F[dL]F[dL])), the “RBC Hemolysis (HD50)” value with murine red blood cells was over 240. Besides, the “MRSA (in vitro activity)” value in data set [1] was determined as 60. In addition, in data set [2], the “VRE (in vitro activity)” value was over 240.
